# Key:
# E. coli (ATCC 10798) [1] = experiment: MIC and MBC measurement with E. coli (ATCC 10798); assay type: cell-based, Escherichia coli
# Excerpt: (§1) General: Microorganisms. Reference strains were purchased from the American Type Culture Collection (Rockville, Md.) or Bactrol disks from Difeo Laboratories (Detroit, Mich.). The following specific ATCC strains were used: 10798 Escherichia coli, 25922 Escherichia coli, 13883 Klebsiella pneumoniae, 27853 Pseudomonas aeruginosa, 14028 Salmonella typhimurium, 29212 Enterococcus faecalis, 25923 Staphylococcus aureus, 19615 Streptococcus pyogenes, and 90028 Candida albicans. Bacterial strains were maintained on Mueller-Hinton agar plates, and Candida albicans was maintained on Sabouraud Dextrose agar plates.
# (§2) Tryptic soy broth (TSB) was made by dissolving 27.5 grams of tryptic soy broth without dextrose (DIFCO Laboratories) in 1 liter of deionized water and sterilizing at 121° C. for 15 minutes. Solid agar (TSA) plates were made by dissolving 6.4 grams of tryptic soy broth and 12 grams of agar (purified grade, Fischer Scientific) in 800 mL of deionized water and sterilizing at 121° C. for 20 minutes. Aliquots (20 mL) of the homogeneous solution were then poured in sterile plastic petri dishes (100×15 mm, Fisher Scientific). Solutions of compounds were made by dissolving the HCl salt of the respective compound into an appropriate amount of deionized and sterilized water followed by microfiltration.
# (§3) Aliquots of 1 mL of the suspension were added to test tubes containing 1 mL TSB and incrementally varied concentrations of cholic acid derivatives and/or erythromycin or novobiocin. In the sensitization experiments, erythromycin or novobiocin were added 15 minutes later than the cholic acid derivatives. The samples were subjected to stationary incubation at 37° C. for 24 hours. Sample turbidity was determined by measuring absorption at 760 nm (HP 8453 UV-Visible Chemstation, Hewlett Packard). Additionally, an alliquot from each of the samples showing no measurable turbidity was subcultured on TSA plates (alliquots were diluted to provide fewer than 300 CFU). Colonies that grew on the subculture after overnight incubation were counted and the number of CFU/mL in the samples were calculated. The calculated values were compared to the number of CFU/mL in the original inoculum.
# E. coli (ATCC 10798) [2] = experiment: Sensitization to erythromycin (concentration lowering the MIC of erythromycin), E. coli (ATCC 10798); assay type: cell-based, Escherichia coli; conditions: for MIC: concentration required to lower the MIC of erythromycin from 70 μg/mL to 1 μg/mL / MBC (with erythromycin): Table 2; for MBC (with erythromycin): erythromycin sensitization; for (a) Concentration required to lower the MIC of erythromycin from 70 to 1 μg/mL / (b) MBC with 1 μg/mL erythromycin / FIC values with erythromycin: Table 9, Escherichia coli (ATCC 10798)
# Procedure: (§4) Alternatively, “fractional inhibitory concentration (FIC)” is also useful for determination of synergy between the compounds of the invention, or the compounds in combination with known antibiotics. FICs can be performed by checkerboard titrations of compounds in one dimension of a microtiter plate, and of antibiotics in the other dimension, for example. The FIC is calculated by looking at the impact of one antibiotic on the MIC of the other and vice versa. […] Preferably, an FIC of less than 0.5 is obtained for synergism. As used herein, FIC can be determined as follows:
# as §3
# (§5) Ability to permeabilize outer membrane: Compounds 11, 106, and 108-114 (FIG. 1) were tested for antibiotic activity. They were also tested for the ability to permeabilize the outer membrane of Gram-negative bacteria, causing sensitization to hydrophobic antibiotics that cannot cross the outer membrane. The permeabilization of the outer membrane was measured using erythromycin and novobiocin.
# (§6) The MICs of erythromycin and novobiocin against E. coli (ATCC 10798) at 70 and >500 μg/mL were measured.
# [3] = system: Pseudomonas aeruginosa (ATCC 27853); experiment: MIC and MBC measurement with Pseudomonas aeruginosa (ATCC 27853); assay type: cell-based; conditions: P. aureginosa (ATCC 27853); for MIC: Table 6; for MIC of the antibiotic alone: starting MIC in sensitization tests
# Excerpt: as §1, §2, §3
# [4] = system: Pseudomonas aeruginosa (ATCC 27853); experiment: Sensitization to erythromycin, Pseudomonas aeruginosa (ATCC 27853); assay type: cell-based; conditions: Table 7; P. aureginosa (ATCC 27853)
# Procedure: as §4
# as §3, with “inoculum. […]” for “inoculum.”
# To measure permeabilization, the FIC values for compounds 1, 2, 5, 106, 10, 112, 133, and 134 with erythromycin, novobiocin, and rifampicin were determined. Concentrations of 0.5, 1.0 or 3.0 μg/mL of these antibiotics were used, and the concentrations of the cholic acid derivatives required to inhibit bacterial growth of Gram-negative strains were determined.
# E. coli (ATCC 10798) [5] = experiment: Sensitization to novobiocin (concentration lowering the MIC of novobiocin), E. coli (ATCC 10798); assay type: cell-based, Escherichia coli; conditions: for (d) Concentration required to lower the MIC of novobiocin from >500 to 1 μg/mL / FIC values with novobiocin: Table 9, Escherichia coli (ATCC 10798)
# Procedure: as §4, §3, §5, §6
# E. coli (ATCC 25922) = experiment: MIC and MBC measurement with E. coli (ATCC 25922); assay type: cell-based, Escherichia coli
# Excerpt: as §1, §2
# as §3, with “inoculum. […]” for “inoculum.”
# [6] = system: Staphylococcus aureus ATCC 25923; experiment: MIC and MBC measurement with Staphylococcus aureus ATCC 25923; assay type: cell-based; conditions: Table 10; Staphylococcus aureus ATCC 25923
# Excerpt: as §1, §2
# as §3, with “inoculum. […]” for “inoculum.”
# [7] = Table 9, Escherichia coli (ATCC 10798)
Compound,"MIC (E. coli (ATCC 10798) [1]; Table 1, E. coli (ATCC 10798))",MIC: concentration required to lower the MIC of erythromycin from 70 μg/mL to 1 μg/mL (E. coli (ATCC 10798) [2]; E. coli (ATCC 10798)),MBC (E. coli (ATCC 10798) [1]; [7]),MIC (E. coli (ATCC 10798) [1]; [7]),(a) Concentration required to lower the MIC of erythromycin from 70 to 1 μg/mL (E. coli (ATCC 10798) [2]),(b) MBC with 1 μg/mL erythromycin (E. coli (ATCC 10798) [2]),FIC values with erythromycin (E. coli (ATCC 10798) [2]),FIC values with novobiocin (E. coli (ATCC 10798) [5]),further results
C[C@H](CCCN(C)Cc1ccccc1)[C@H]1CC[C@H]2[C@@H]3[C@H](OCCCCN)C[C@@H]4C[C@H](OCCCCN)CC[C@]4(C)[C@H]3C[C@H](OCCCCN)[C@]12C [Compound 3],6 mg/L,1.5 mg/L,,,,,,,MIC [3]: 16 mg/L; MIC: concentration required to lower the MIC of erythromycin from 240 μg/mL to 5 μg/mL [4]: 6 mg/L
C[C@H](CCCN(C)Cc1ccccc1)[C@H]1CC[C@H]2[C@@H]3[C@H](OCCN)C[C@@H]4C[C@@H](OCCN)CC[C@]4(C)[C@H]3C[C@H](OCCN)[C@]12C [Compound 8],46 mg/L,10 mg/L,,,,,,,MIC [3]: 50 mg/L; MIC: concentration required to lower the MIC of erythromycin from 240 μg/mL to 5 μg/mL [4]: 40 mg/L
CCCCCCCCOCCC[C@@H](C)[C@H]1CC[C@H]2[C@@H]3[C@H](OCCCN)C[C@@H]4C[C@H](OCCCN)CC[C@]4(C)[C@H]3C[C@H](OCCCN)[C@]12C [Compound 9],3 mg/L,3 mg/L,,,,,,,"MBC (E. coli (ATCC 10798) [1]; Table 1, E. coli (ATCC 10798)): 10 mg/L; MBC (with erythromycin) (E. coli (ATCC 10798) [2]; E. coli (ATCC 10798)): 3 mg/L; MIC [3]: 8 mg/L; MIC: concentration required to lower the MIC of erythromycin from 240 μg/mL to 5 μg/mL [4]: 5 mg/L"
CC(O)[C@H]1CC[C@H]2[C@@H]3[C@H](OCCCN)C[C@@H]4C[C@H](OCCCN)CC[C@]4(C)[C@H]3C[C@H](OCCCN)[C@]12C (some centres unmarked) [Compound 11],140 mg/L,40 mg/L,>160 mg/L,140 mg/L,20 mg/L,180 mg/L,0.16,0.29,"MBC (E. coli (ATCC 10798) [1]; Table 1, E. coli (ATCC 10798)): >160 mg/L; MBC (with erythromycin) (E. coli (ATCC 10798) [2]; E. coli (ATCC 10798)): >160 mg/L; MIC: concentration required to lower the MIC of novobiocin from >500 μg/mL to 1 μg/mL (E. coli (ATCC 10798) [5]; Table 3, E. coli (ATCC 10798)): 40 mg/L; MBC (with novobiocin) (E. coli (ATCC 10798) [5]; Table 3, E. coli (ATCC 10798), novobiocin sensitization): 140 mg/L; (d) Concentration required to lower the MIC of novobiocin from >500 to 1 μg/mL (E. coli (ATCC 10798) [5]): 40 mg/L"
C[C@H](CCCOCCC[C@@H](C)[C@H]1CC[C@H]2[C@@H]3[C@H](OCCCN)C[C@@H]4C[C@H](OCCCN)CC[C@]4(C)[C@H]3C[C@H](OCCCN)[C@]12C)[C@H]1CC[C@H]2[C@@H]3[C@H](OCCCN)C[C@@H]4C[C@H](OCCCN)CC[C@]4(C)[C@H]3C[C@H](OCCCN)[C@]12C [Compound 12],4 mg/L,1.5 mg/L,,,,,,,"MBC (E. coli (ATCC 10798) [1]; Table 1, E. coli (ATCC 10798)): 4 mg/L; MBC (with erythromycin) (E. coli (ATCC 10798) [2]; E. coli (ATCC 10798)): 2.5 mg/L; MIC: concentration required to lower the MIC of novobiocin from >500 μg/mL to 1 μg/mL (E. coli (ATCC 10798) [5]; Table 3, E. coli (ATCC 10798)): 2.5 mg/L"
C[C@H](CO)[C@H]1CC[C@H]2[C@@H]3[C@H](OCCCN)C[C@@H]4C[C@H](OCCCN)CC[C@]4(C)[C@H]3C[C@H](OCCCN)[C@]12C [Compound 108],,,,,,,0.071,0.17,
C[C@H](CCO)[C@H]1CC[C@H]2[C@@H]3[C@H](OCCCN)C[C@@H]4C[C@H](OCCCN)CC[C@]4(C)[C@H]3C[C@H](OCCCN)[C@]12C [Compound 109],,,,,,,0.071,0.22,
C[C@H](CCCO)[C@H]1CC[C@H]2[C@@H]3[C@H](OCCCN)C[C@@H]4C[C@H](OCCCN)CC[C@]4(C)[C@H]3C[C@H](OCCCN)[C@]12C [Compound 110],,,60 mg/L,36 mg/L,2.0 mg/L,50 mg/L,0.070,0.11,(d) Concentration required to lower the MIC of novobiocin from >500 to 1 μg/mL (E. coli (ATCC 10798) [5]): 4.0 mg/L
COCCC[C@@H](C)[C@H]1CC[C@H]2[C@@H]3[C@H](OCCCN)C[C@@H]4C[C@H](OCCCN)CC[C@]4(C)[C@H]3C[C@H](OCCCN)[C@]12C [Compound 111],,,33 mg/L,30 mg/L,1.0 mg/L,20 mg/L,0.048,0.069,(d) Concentration required to lower the MIC of novobiocin from >500 to 1 μg/mL (E. coli (ATCC 10798) [5]): 2.0 mg/L
CCCCCOCCC[C@@H](C)[C@H]1CC[C@H]2[C@@H]3[C@H](OCCCN)C[C@@H]4C[C@H](OCCCN)CC[C@]4(C)[C@H]3C[C@H](OCCCN)[C@]12C [Compound 113],,,5.0 mg/L,3.0 mg/L,0.8 mg/L,2.0 mg/L,0.28,0.27,(d) Concentration required to lower the MIC of novobiocin from >500 to 1 μg/mL (E. coli (ATCC 10798) [5]): 1.0 mg/L
CCCCCCCCOCCC[C@@H](C)[C@H]1CC[C@H]2[C@@H]3[C@H](OCCCN)C[C@@H]4C[C@H](OCCCN)CC[C@]4(C)[C@H]3C[C@H](OCCCN)[C@]12C [Compound 114],,,10 mg/L,3.0 mg/L,3.0 mg/L,3.0 mg/L,1.0,,
C[C@H](CCCOS(=O)(=O)O)[C@H]1CC[C@H]2[C@@H]3[C@H](OCCCN)C[C@@H]4C[C@H](OCCCN)CC[C@]4(C)[C@H]3C[C@H](OCCCN)[C@]12C [Compound 132],,,,,,,,,MIC (E. coli (ATCC 10798) [1]; E. coli (ATCC 10798)): 60 mg/L; concentration required to lower the MIC of erythromycin to 1 μg/mL (E. coli (ATCC 10798) [2]; E. coli (ATCC 10798)): 4.0 mg/L
C[C@H](CCCN)[C@H]1CC[C@H]2[C@@H]3[C@H](OCCCN)C[C@@H]4C[C@H](OCCCN)CC[C@]4(C)[C@H]3C[C@H](OCCCN)[C@]12C [Compound 135],,,,,,,,,"MBC (in words) (E. coli (ATCC 10798) [1]; FIG. 5, strain not named): relatively high; MIC (in words) (E. coli (ATCC 10798) [1]; FIG. 5, strain not named): relatively high"
"CC[C@H]1OC(=O)[C@H](C)[C@@H](O[C@H]2C[C@@](C)(OC)[C@@H](O)[C@H](C)O2)[C@H](C)[C@@H](O[C@@H]2O[C@H](C)C[C@H](N(C)C)[C@H]2O)[C@](C)(O)C[C@@H](C)C(=O)[C@H](C)[C@@H](O)[C@]1(C)O [erythromycin, reference compound]",,,,,,,,,"MIC (E. coli (ATCC 25922); Escherichia coli, ATCC25922, E. coli (ATCC 25922), starting MIC in sensitization tests, read-out: MIC of erythromycin alone): 36 mg/L; MIC of the antibiotic alone [3]: 240 μg/mL to 5 μg/mL with P. aureginosa (ATCC 27853)."
"CO[C@@H]1[C@@H](OC(N)=O)[C@@H](O)[C@H](Oc2ccc3c(O)c(NC(=O)c4ccc(O)c(CC=C(C)C)c4)c(=O)oc3c2C)OC1(C)C [novobiocin, reference compound]",,,,,,,,,MIC of the antibiotic alone [3]: >500 μg/mL to 1 μg/mL with P. aureginosa (ATCC 27853).
"polymyxin B [PMB, reference compound]",,,,,,,,,"MBC (E. coli (ATCC 25922); Table 10, Escherichia coli ATCC 25922): 1.8 mg/L; MBC [6]: >100 mg/L"

# Reference: patent publication US7598234B2, “Steroid derived antibiotics” (Brigham Young University, priority 1998, dated 2009)
